Test system: ddY-strain male mice
Assay: Acute Toxicity Test (minimum lethal dose, oral)
Format: in vivo
Conditions: seven days after administration
Experimental: Test compounds were orally administered to groups of ddY-strain male mice weighing 20±1 g, each group consisting of three mice. Seven days after the administration, minimum lethal dose (MLD) of each compound was determined by observing the mortality.

Structure (SMILES): Cn1c(=O)c2c(nc(/C=C/c3ccc4c(c3)OCO4)n2C)n(C)c1=O [Compound 96, (E)-8-(3,4-Methylenedioxystyryl)caffeine]
- MLD (minimum lethal dose): > 300 mg/kg

Structure (SMILES): CCCn1c(=O)c2c(nc(/C=C/c3cc(OC)cc(OC)c3)n2C)n(CCC)c1=O [Compound 34, (E)-8-(3,5-Dimethoxystyryl)-7-methyl-1,3-dipropylxanthine]
- MLD (minimum lethal dose): > 300 mg/kg

Structure (SMILES): CCCn1c(=O)c2[nH]c(/C=C/c3cc(C)c(OC)cc3C)nc2n(CCC)c1=O [Compound 45, (E)-8-(4-Methoxy-2,5-dimethylstyryl)-1,3-dipropylxanthine]
- MLD (minimum lethal dose): > 300 mg/kg

Structure (SMILES): CCCn1c(=O)c2c(nc(/C=C/c3ccc(OC)cc3OC)n2C)n(CCC)c1=O [Compound 26, (E)-8-(2,4-Dimethoxystyryl)-7-methyl-1,3-dipropylxanthine]
- MLD (minimum lethal dose): > 300 mg/kg

Structure (SMILES): CCn1c(=O)c2[nH]c(/C=C/c3ccc(OC)cc3OC)nc2n(CC)c1=O [Compound 77, (E)-8-(2,4-Dimethoxystyryl)-1,3-diethylxanthine]
- MLD (minimum lethal dose): > 100 mg/kg

Structure (SMILES): CCn1c(=O)c2[nH]c(/C=C/c3ccc(Br)cc3)nc2n(CC)c1=O [Compound 141, (E)-8-(4-Bromostyryl)-1,3-diethylxanthine]
- MLD (minimum lethal dose): > 100 mg/kg

Structure (SMILES): CCn1c(=O)c2c(nc(C(F)=Cc3ccccc3)n2C)n(CC)c1=O (stereo in doubt) [Compound 138, (E)-1,3-Diethyl-8-(α-fluorostyryl)-7-methylxanthine]
- MLD (minimum lethal dose): > 100 mg/kg

Structure (SMILES): CCn1c(=O)c2c(nc(/C=C/c3ccc(O)c(C)c3C)n2C)n(CC)c1=O [Compound 194, (E)-1,3-Diethyl-8-(4-hydroxy-2,3-dimethylstyryl)-7-methylxanthine]
- MLD (minimum lethal dose): > 100 mg/kg

Structure (SMILES): CCn1c(=O)c2c(nc(/C=C/c3cccc(OC(F)(F)F)c3)n2C)n(CC)c1=O [Compound 144, (E)-1,3-Diethyl-7-methyl-8-(3-trifluoromethoxystyryl)xanthine]
- MLD (minimum lethal dose): > 100 mg/kg

Structure (SMILES): CCn1c(=O)c2c(nc(/C=C/c3cc(C(F)(F)F)cc(C(F)(F)F)c3)n2C)n(CC)c1=O [Compound 154, (E)-8-[3,5-Bis (trifluoromethyl)styryl]-1,3-diethyl-7-methylxanthine]
- MLD (minimum lethal dose): > 100 mg/kg

Structure (SMILES): CCn1c(=O)c2c(nc(/C=C/c3cc4c(cc3Br)OCO4)n2C)n(CC)c1=O [Compound 166, (E)-8-(2-Bromo-4,5-methylenedioxystyryl)-1,3-diethyl-7-methylxanthine]
- MLD (minimum lethal dose): > 100 mg/kg

Structure (SMILES): C#CCn1c(/C=C/c2ccc(OC)c(OC)c2)nc2c1c(=O)n(CCC)c(=O)n2CCC [Compound 67, (E)-8-(3,4-Dimethoxystyryl)-7-propargyl-1,3-dipropylxanthine]
- MLD (minimum lethal dose): > 300 mg/kg

Structure (SMILES): CCCn1c(=O)c2c(nc(/C=C/c3cc(Br)c(OC)c(OC)c3)n2C)n(CCC)c1=O [Compound 61, (E)-8-(3-Bromo-4,5-dimethoxystyryl)-7-methyl-1,3-dipropylxanthine]
- MLD (minimum lethal dose): > 100 mg/kg

Structure (SMILES): CCn1c(=O)c2[nH]c(/C=C/c3ccc(F)cc3)nc2n(CC)c1=O [Compound 149, (E)-1,3-Diethyl-8-(4-fluorostyryl)xanthine]
- MLD (minimum lethal dose): > 100 mg/kg

Structure (SMILES): CCCn1c(=O)c2[nH]c(/C=C/c3cc(OC)c(OCc4ccccc4)c(OC)c3)nc2n(CCC)c1=O [Compound 27, (E)-8-(4-Benzyloxy-3,5-dimethoxystyryl)-1,3-dipropylxanthine]
- MLD (minimum lethal dose): > 100 mg/kg

Structure (SMILES): CCCn1c(=O)c2nc(/C=C/c3ccc(OC)c(OC)c3OC)[nH]c2n(CCC)c1=O [Compound 21, (E)-1,3-Dipropyl-8-(2,3,4-trimethoxystyryl)xanthine]
- MLD (minimum lethal dose): > 300 mg/kg

Structure (SMILES): CCn1c(=O)c2[nH]c(/C=C/c3cc4c(cc3Br)OCO4)nc2n(CC)c1=O [Compound 165, (E)-8-(2-Bromo-4,5-methylenedioxystyryl)-1,3-diethylxanthine]
- MLD (minimum lethal dose): > 100 mg/kg

Structure (SMILES): CCn1c(=O)c2[nH]c(/C=C/c3cccc(OC)c3OC)nc2n(CC)c1=O [Compound 75, (E)-8-(2,3-Dimethoxystyryl)-1,3-diethylxanthine]
- MLD (minimum lethal dose): > 300 mg/kg

Structure (SMILES): CCCn1c(=O)c2c(nc(/C=C/c3ccc4c(c3)OCO4)n2C)n(CCC)c1=O [Compound 20, (E)-7-Methyl-8-(3,4-methylenedioxystyryl)-1,3-dipropylxanthine]
- MLD (minimum lethal dose): > 300 mg/kg

Structure (SMILES): COc1cc(/C=C/c2nc3c(=O)n(C)c(=O)n(C)c3[nH]2)cc(OC)c1OC [Compound 11, (E)-8-(3,4,5-trimethoxystyryl)theophylline]
- MLD (minimum lethal dose): > 300 mg/kg

Structure (SMILES): CCCCOc1ccc(/C=C/c2nc3c(c(=O)n(CCC)c(=O)n3CCC)n2C)cc1 [Compound 53, (E)-8-(4-Butoxystyryl)-7-methyl-1,3-dipropylxanthine]
- MLD (minimum lethal dose): > 300 mg/kg

Structure (SMILES): CCn1c(=O)c2[nH]c(/C=C/c3ccc(OC)c(C)c3OC)nc2n(CC)c1=O [Compound 85, (E)-8-(2,4-Dimethoxy-3-methylstyryl)-1,3-diethylxanthine]
- MLD (minimum lethal dose): > 300 mg/kg

Structure (SMILES): COc1ccc(/C=C/c2nc3c(c(=O)n(C)c(=O)n3C)n2C)c(OC)c1OC [Compound 92, (E)-8-(2,3,4-Trimethoxystyryl)caffeine]
- MLD (minimum lethal dose): > 300 mg/kg

Structure (SMILES): CCn1c(=O)c2[nH]c(/C=C/c3cccc(F)c3C)nc2n(CC)c1=O [Compound 180, (E)-1,3-Diethyl-8-(3-fluoro-2-methylstyryl)xanthine]
- MLD (minimum lethal dose): > 100 mg/kg

Structure (SMILES): CCn1c(=O)c2c(nc(/C(C)=C/c3ccccc3)n2C)n(CC)c1=O [Compound 134, (E)-1,3-Diethyl-7-methyl-8-(α-methylstyryl)xanthine]
- MLD (minimum lethal dose): > 300 mg/kg

Structure (SMILES): CCn1c(=O)c2c(nc(/C=C/c3ccc(F)c(Cl)c3)n2C)n(CC)c1=O [Compound 177, (E)-8-(3-Chloro-4-fluorostyryl)-1,3-diethyl-7-methylxanthine]
- MLD (minimum lethal dose): > 100 mg/kg

Structure (SMILES): CCn1c(=O)c2[nH]c(/C=C/c3ccc(OC)c(OC)c3)nc2n(CC)c1=O [Compound 73, (E)-8-(3,4-Dimethoxystyryl)-1,3-diethylxanthine]
- MLD (minimum lethal dose): > 300 mg/kg

Structure (SMILES): CCCCOc1ccc(/C=C/c2nc3c([nH]2)c(=O)n(CC)c(=O)n3CC)cc1 [Compound 147, (E)-8-(4-Butoxystyryl)-1,3-diethylxanthine]
- MLD (minimum lethal dose): > 100 mg/kg

Structure (SMILES): CCCn1c(=O)c2c(nc(/C=C/c3ccc(OC)c(Br)c3)n2C)n(CCC)c1=O [Compound 57, (E)-8-(3-Bromo-4-methoxystyryl)-7-methyl-1,3-dipropylxanthine]
- MLD (minimum lethal dose): > 100 mg/kg

Structure (SMILES): CCn1c(=O)c2c(nc(/C=C/c3cc(OC)c(OC)cc3Br)n2C)n(CC)c1=O [Compound 118, (E)-8-(2-Bromo-4,5-dimethoxystyryl)-1,3-diethyl-7-methylxanthine]
- MLD (minimum lethal dose): > 100 mg/kg

Structure (SMILES): CCn1c(=O)c2c(nc(/C=C/c3ccccc3OC)n2C)n(CC)c1=O [Compound 158, (E)-1,3-Diethyl-8-(2-methoxystyryl)-7-methylxanthine]
- MLD (minimum lethal dose): > 100 mg/kg

Structure (SMILES): C=CCn1c(=O)c2[nH]c(/C=C/c3ccc(OC)c(OC)c3)nc2n(CC=C)c1=O [Compound 69, (E)-1,3-Diallyl-8-(3,4-dimethoxystyryl)xanthine]
- MLD (minimum lethal dose): > 100 mg/kg

Structure (SMILES): CCCn1c(=O)c2c(nc(/C=C/c3cc(OC)c(OCc4ccccc4)c(OC)c3)n2C)n(CCC)c1=O [Compound 28, (E)-8-(4-Benzyloxy-3,5-dimethoxystyryl)-7-methyl-1,3-dipropylxanthine]
- MLD (minimum lethal dose): > 100 mg/kg

Structure (SMILES): CCCn1c(=O)c2c(nc(/C=C/c3ccccc3F)n2C)n(CCC)c1=O [Compound 44, (E)-8-(2-Fluorostyryl)-7-methyl-1,3-dipropylxanthine]
- MLD (minimum lethal dose): > 100 mg/kg

Structure (SMILES): CCCn1c(=O)c2[nH]c(/C=C/c3ccc(OC)c(OC)c3)nc2n(CCC)c1=S [Compound 71, (E)-8-(3,4-Dimethoxystyryl)-1,3-dipropyl-2-thioxanthine]
- MLD (minimum lethal dose): > 100 mg/kg

Structure (SMILES): COc1ccc(/C=C/c2nc3c(c(=O)n(C)c(=O)n3C)n2C)c(Cl)c1OC [Compound 108, (E)-8-(2-Chloro-3,4-dimethoxystyryl)caffeine]
- MLD (minimum lethal dose): > 300 mg/kg

Structure (SMILES): CCn1c(=O)c2[nH]c(/C=C/c3cccc(OC(F)(F)F)c3)nc2n(CC)c1=O [Compound 143, (E)-1,3-Diethyl-8-(3-trifluoromethoxystyryl)xanthine]
- MLD (minimum lethal dose): > 100 mg/kg

Structure (SMILES): CCCn1c(=O)c2c(nc(/C=C/c3cccc(F)c3)n2C)n(CCC)c1=O [Compound 38, (E)-8-(3-Fluorostyryl)-7-methyl-1,3-dipropylxanthine]
- MLD (minimum lethal dose): > 300 mg/kg

Structure (SMILES): CCn1c(=O)c2c(nc(/C=C/c3ccc(C(F)(F)F)cc3)n2C)n(CC)c1=O [Compound 136, (E)-1,3-Diethyl-7-methyl-8-(4-trifluoromethylstyryl)xanthine]
- MLD (minimum lethal dose): > 300 mg/kg

Structure (SMILES): CCn1c(=O)c2[nH]c(/C=C/c3cccc([N+](=O)[O-])c3)nc2n(CC)c1=O [Compound 159, (E)-1,3-Diethyl-8-(3-nitrostyryl)xanthine]
- MLD (minimum lethal dose): > 100 mg/kg

Structure (SMILES): CCn1c(=O)c2c(nc(/C=C/c3ccc(OCCCCBr)cc3)n2C)n(CC)c1=O [Compound 186, (E)-8-[4-(4-Bromobutoxy)styryl]-1,3-diethyl-7-methylxanthine]
- MLD (minimum lethal dose): > 100 mg/kg

Structure (SMILES): CCn1c(=O)c2c(nc(/C=C/c3ccc4c(c3)OCO4)n2C)n(CC)c1=O [Compound 88, (E)-1,3-Diethyl-7-methyl-8-(3,4-methylenedioxystyryl)xanthine]
- MLD (minimum lethal dose): > 300 mg/kg

Structure (SMILES): CCCn1c(=O)c2[nH]c(/C=C/c3cc(Br)c(OC)c(OC)c3)nc2n(CCC)c1=O [Compound 60, (E)-8-(3-Bromo-4,5-dimethoxystyryl)-1,3-dipropylxanthine]
- MLD (minimum lethal dose): > 300 mg/kg

Structure (SMILES): CCCn1c(=O)c2[nH]c(/C=C/c3ccc(OC)c(C)c3OC)nc2n(CCC)c1=O [Compound 15, (E)-8-(2,4-Dimethoxy-3-methylstyryl)-1,3-dipropylxanthine]
- MLD (minimum lethal dose): > 100 mg/kg

Source: patent publication US5543415A, “Antidepressants” (Kyowa Hakko Kogyo Co., Ltd., priority 1992, dated 1996)
